Experimental data from PubChem BioAssay AID179 (DTP/NCI, 2004).
Several values for one entry are separate records, joined by “and”; a condition that tells them apart may be missing. Identical values can stand only once. Activity calls are given as the source filed them.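 Rule for the calls: active = compounds giving half or more protection of infected cells from virus-caused growth loss, again on retest; inactive = the rest.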 Where a SMILES comes first, the peptide text is derived from it. The star is where a group is joined. Cbz = O=C(OCc1ccccc1)*

Test system: CEM cells HIV-1 protection, formazan growth assay
Assay: NCI AIDS Antiviral Assay
Settings: for IC50: measured here: growth of uninfected CEM cells
Method in brief: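 Human CEM cells, uninfected and HIV-1-infected, received five drug concentrations, and growth was read by soluble formazan assay. Compounds giving at least 50% protection were retested; reproducible 100% protection defined confirmed active.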

Row | SMILES | EC50 [µM] | IC50 | outcome
1 | CCCC(=N\N=C(N)N)/C(CCC)=N/N=C(N)N | > 186 | > 186 µM | –
2 | CC(C)CNC(=O)c1c(NC(=O)c2ccccc2)sc2[nH]c(=O)n(-c3ccccc3)c(=O)c12 | > 50.1 | > 50.1 µM | –
3 | CC(=O)/C(=C/N1CC(=O)NC1=S)C(=O)Nc1ccccc1 | > 200 | > 200 µM | –
4 | CC(=O)/C(=C/c1cccc(F)c1)C(=O)c1ccccc1 | > 19.5 | > 19.5 µM | –
5 | COC(=O)/C(=N\NC(=O)c1ccccc1O)C(C#N)c1ccc(Cl)cc1 (configuration not stated) | > 479 | 0.912 µM | –
6 | CCOC(=O)C1=C(C)N(NC(N)=O)C2(N)N(NC(N)=O)C(C)=C(C(=O)OCC)C12C(=O)OCC (configuration not stated) | > 513 | > 513 µM | –
7 | COC(=O)C1OS(=O)(=O)OC1C(=O)OC (configuration not stated) | > 200 | > 200 µM | –
8 | Cc1nn(C)c(=O)[nH]c1=O | > 1780 | > 1780 µM | –
9 | OCCCN(Cc1ccccc1)CC(O)c1ccc(OCc2ccccc2)c(OCc2ccccc2)c1 (configuration not stated) | > 200 | 9.55 µM | –
10 | COC(=O)/C=C(/C=C1/C(C#N)=C(N)N(c2ccc(Cl)cc2)C1(C)/C(=C/C(=O)OC)C(=O)OC)C(=O)OC (configuration not stated) | > 200 | 23.4 µM | –
11 | COC(=O)C1=C(C(=O)OC)C23CC1C1C(C(=O)OC)=C(C(=O)OC)C12C1C=CC3C2C(=O)OC(=O)C21 (configuration not stated) | > 14.5 | > 14.5 µM | –
12 | CC1(C)COC(c2cccc(C3=NC(C)(C)CO3)n2)=N1 | > 26.3 | > 26.3 µM | –
13 | O=S1(=O)c2ccccc2NC(c2ccc3ccccc3c2)CC1c1ccccc1F (configuration not stated) | > 6.46 | > 6.46 µM | –
14 | CN1C(=O)N(C)C(=O)C(Nc2ccc([N+](=O)[O-])cc2)(SCCO)C1=O | 97.7 | 363 µM | –
15 | COC(=O)NN=C(c1ccc(Cl)cc1)c1ccc(Cl)cc1 | 35.5 | 174 µM | –
16 | CN=C(N)N=Nc1c(O)[nH]c2ccccc12 | > 200 | > 200 µM | –
17 | O=C1c2ccccc2C(=O)c2nc3ccc(Cl)cc3cc21 | > 6.17 | > 6.17 µM | –
18 | COc1ccc(N=C2C(=Nc3ccc(OC)cc3)N(c3ccc(N(C)C)cc3)C(=S)N2c2ccc(OC)cc2)cc1 | > 20 | 0.692 µM | –
19 | COc1ccccc1NCc1nnc(CCCCCCCCc2nnc(CNc3ccccc3OC)o2)o1 | > 200 | > 200 µM | –
20 | O=S(=O)(c1ccccc1)n1c(C(O)c2ccccc2)cc2ccccc21 (configuration not stated) | > 200 | 17.8 µM | –
21 | CCOC(=O)c1c(SCCN2CCOCC2)n(-c2ccccc2)c(=S)n(-c2ccccc2)c1=O | > 27.5 | > 27.5 µM | –
22 | CC(C)(C)C1CCC(N=C(N)CSS(=O)(=O)O)CC1 (configuration not stated) | > 200 | 24 µM | –

Row | SMILES | EC50 [µM] | IC50 | outcome
23 | CN1CC2=C(NCNS2(=O)=O)N(C)C1 | > 148 | > 148 µM | –
24 | COc1ccc(/C=C2\CCCCCC2=O)cc1 | > 200 | > 200 µM | –
25 | CCCCCC/C=C/CCCCCCCc1cccc(O)c1C(=O)O | > 102 | 63.1 µM | –
26 | C1COC2SC3=C(SC(=C4SC5=C(SCCS5)S4)S3)SC2O1 (configuration not stated) | > 100 | > 100 µM | –
27 | CCOC(=O)c1c(NC(=O)c2ccccc2)sc2c1CCC2 | > 151 | > 151 µM | –
28 | [N-]=[N+]=Nc1ccc2c(c1)Sc1ccccc1N2CCCCN1CCN(Cc2ccc(C(=O)c3ccccc3)cc2)CC1 | > 100 | 6.03 µM | –
29 | CN1CCN(CCCN2CC(=O)N3Cc4ccccc4CN3C(=O)C2)CC1 | > 200 | > 200 µM | –
30 | CSc1nc(-c2ccccc2)nc(C(C#N)C#N)n1 | – | – | inactive
31 | CCN(CC)CCC(=O)OC1C(C)=CC(C)C(=O)CC(C(C)CC2CCC(O)C(OC)C2)OC(=O)C2CCCCN2C(=O)C(=O)[C@@]2(O)OC(CCC2C)CC(OC)\C(C)=C/C=C/C=C/C(C)CC(C)C(=O)C1OC (some centres not stated) | > 200 | 9.12 µM | –
32 | COc1ccc(CCc2ncc[nH]2)cc1 | > 708 | > 708 µM | –
33 | COc1cccc(/C=C2\CCCc3ccccc3C2=O)c1 | > 200 | 26.3 µM | –
34 | O=C(Nc1ccccc1)c1cc2ccc(O)c(O)c2cn1 | > 158 | 8.32 µM | –
35 | COc1ccc(-c2c(C(C)=O)c(C)n(C3OC(COC(C)=O)C(OC(C)=O)C(OC(C)=O)C3OC(C)=O)c(=S)c2C#N)cc1 (configuration not stated) | > 200 | 87.1 µM | –
36 | CCCCC/C=C/C/C=C/CCCCCCCC(=O)OCC(COC1OC(CS(=O)(=O)O)C(O)C(O)C1O)OC(=O)CCCCCCC/C=C/C/C=C/CCCCC (configuration not stated) | > 27.5 | > 27.5 µM | –
37 | O=c1ccn(CC2OCC(CO)O2)c(=O)[nH]1 (configuration not stated) | > 2750 | 1150 µM and > 2750 µM | –
38 | CC(/C=C/C(O)=C1/C(=O)CNC1=O)=C\[C@@H](C)[C@H]1O[C@@]2(C)O[C@H](C(=O)[C@@H]3O[C@@]32C)[C@@H]1C | > 200 | 91.2 µM | –
39 | NC(=O)NC(S(=O)(=O)O)S(=O)(=O)O | – | – | inactive
40 | CC1CC(C)c2c(O)c3c(c(O)c2N1)C(=O)c1ccccc1C3=O (configuration not stated) | > 16.2 | 8.71 µM | –
41 | C=C1CC2(CCS(=O)(=O)c3ccccc32)OC1=O (configuration not stated) | > 355 | 1.51 µM | –
42 | COc1cc2c(cc1OC)CCc1cc(OC)c(OC)cc1CC2 | > 200 | 89.1 µM | –
43 | O=C(c1cccc(Cl)c1)c1c(O)c2ccccc2oc1=O | – | – | inactive
44 | Clc1ccccc1OCc1nc2ccccc2[nH]1 | > 200 | > 200 µM | –

Row | SMILES | EC50 [µM] | IC50 | outcome
45 | NC(CSS(=O)(=O)O)=NCCSc1ccc(Cl)cc1 | > 200 | 60.3 µM | –
46 | COc1ccc(OC)c(NC(=O)CCC/C(CC(=O)c2ccc(O)c(OC)c2)=N\Nc2ccc([N+](=O)[O-])cc2)c1 | > 13.2 | > 13.2 µM | –
47 | Cc1cc(Cl)c(O)c(-c2cc(-c3ccccc3O)c(C#N)c(N)n2)c1 | > 200 | 2.14 µM | –
48 | CCOC(=O)CCC(NC(=O)OCc1ccccc1)C(=O)NC(CCC(=O)OCC)C(=O)OCC (configuration not stated) (Cbz-Glu(OEt)-Glu(OEt)-OEt; configuration not given here) | > 200 | > 200 µM | –
49 | O=[N+]([O-])/C(C(Cl)=C(Cl)Cl)=C1\NCCS1 | > 200 | > 100 µM | –
50 | CN(/N=C(\C(=O)O)c1ccccc1)C1=NCCCCN1 | > 200 | > 100 µM | –
51 | NC1=NC(=O)[C@H](Cc2c[nH]c3ccccc23)N1C(=O)OCc1ccccc1 | > 200 | 120 µM | –
52 | Cc1cccc2oc3c(c(=O)c12)CC(O)C(C)(C)O3 (configuration not stated) | > 200 | 79.4 µM | –
53 | O=[N+]([O-])c1ccc(/C=C/c2ccc(N=Nc3ccc(/C=C/c4ccc([N+](=O)[O-])cc4S(=O)(=O)O)c(S(=O)(=O)O)c3)cc2S(=O)(=O)O)c(S(=O)(=O)O)c1 | 12.6 | > 200 µM | –
54 | Cc1cc(=O)c2ccccc2o1 | – | – | inactive
55 | N#Cc1c(N2CCOCC2)ncn(-c2ccc(Cl)cc2)c1=O | > 200 | > 200 µM | –
56 | O=c1c2ccccc2oc2nccnc12 | – | – | inactive
57 | O=CNc1ccccc1OCCOc1ccccc1NC=O | > 200 | > 200 µM | –
58 | Cc1cc(-c2cccc3ccccc23)c(C#N)c(=S)n1C1OC(CO)C(O)C(O)C1O (configuration not stated) | > 200 | 66.1 µM | –
59 | CC(CCCOC(c1ccccc1)(c1ccccc1)c1ccccc1)OC(=O)Nc1cc([N+](=O)[O-])cc([N+](=O)[O-])c1 (configuration not stated) | > 12.9 | > 12.9 µM | –
60 | O=C1NC(=O)C(=Cc2ccc([N+](=O)[O-])cc2)C(=O)N1 | > 138 | > 138 µM | –
61 | Cc1oc2nc(N(C)C)n3cnnc3c2c1C | – | – | inactive
62 | CCN(CCCl)c1cc(C[N+](C)(C)[O-])cc(NC(=O)c2ccc(C(=O)Nc3cc(C[N+](C)(C)[O-])cc(N(CC)CCCl)c3)cc2)c1 | > 200 | 36.3 µM | –
63 | O=C1c2cc(Cl)ccc2OC2CCON12 (configuration not stated) | > 200 | > 200 µM | –
64 | CN(C)c1ccc(S(=O)c2ccc(N(C)C)cc2)cc1 | > 34.7 | > 34.7 µM | –
65 | N#Cc1nc(C#N)n(C(=O)c2ccccc2)c1NC(=O)c1ccccc1 | > 200 | > 200 µM | –
66 | N#Cc1c(N2CCOCC2)ncn(-c2ccccc2)c1=O | > 200 | > 200 µM | –

Row | SMILES | EC50 [µM] | IC50 | outcome
67 | C1=Cc2cccc3occ(c23)C=C1 | > 200 | 28.8 µM | –
68 | O=C(O)C1=CN(c2ccncc2)C(c2ccco2)=CC1c1ccccc1[N+](=O)[O-] (configuration not stated) | > 200 | 4.79 µM | –
69 | CC1=NN2C(=N)/C(=C/c3ccco3)C(=O)N=C2S1 | > 200 | > 200 µM | –
70 | CCC[N+](C)(C)CCCNC(=O)c1c(O)c2ccccc2[nH]c1=O | 178 | 182 µM | –
71 | CC(=O)Nc1sccc1S(=O)(=O)c1ccsc1NC(C)=O | > 200 | 5.62 µM | –
72 | Nc1c(Br)cc2c([nH]c(=O)c3cc(Br)ccc32)c1Br | > 200 | 38.9 µM | –
73 | COc1ccc(N2C(=O)C3c4[nH]c5ccc(OCc6ccccc6)cc5c4C4CCC(C(C)(C)C)CC4C3C2=O)cc1 (configuration not stated) | > 200 | 16.6 µM | –
74 | OC12c3ccccc3C1CCCCC2N1CCCC1 (configuration not stated) | > 200 | > 200 µM | –
75 | Cc1cn(C2CC(O)C(COC(=O)CCCCCCCCCCBr)O2)c(=O)[nH]c1=O (configuration not stated) | > 102 | 53.7 µM | –
76 | CC1=NNC(=O)C1C1CC(c2c[nH]c3ccccc23)=NNC1=S (configuration not stated) | > 100 | > 100 µM | –
77 | Cc1cc(C)n(C2OC(CO)C(O)C(O)C2O)c(=S)c1C#N (configuration not stated) | > 200 | > 200 µM | –
78 | Cc1ccccc1N1C(=O)[N+]2(CCCCC2)N=C1[O-] | > 955 | 295 µM | –
79 | CC(SCC(=O)O)=[N+]1CCCCC1 | > 891 | > 891 µM | –
80 | CCN(CC)CCNC(=O)c1nn(C)c(=S)[nH]c1=S | – | – | inactive
81 | OC(CNc1ccccn1)c1ccccc1 (configuration not stated) | > 200 | > 200 µM | –
82 | CCOc1ccc(/C=N\N2C(=O)c3ccccc3C2=O)cc1 | > 123 | > 123 µM | –
83 | COc1ccc(S(=O)(=O)NNS(C)(=O)=O)cc1 | > 447 | 87.1 µM | –
84 | Cc1cscc(C)c1=S | > 195 | > 195 µM | –
85 | Cc1ccc(/C=N/Nc2cnccn2)s1 | > 200 | > 200 µM | –
86 | COc1cc(Nc2nc3c(N)cc(C(F)(F)F)cc3nc2-c2ccccc2)cc(OC)c1OC | > 15.1 | > 15.1 µM | –
87 | Cc1ccc(C(=O)c2ccccc2C(=O)O)cc1C | > 200 | > 200 µM | –
